Measurements: patent US6835735B2, “4-(phenylamino)-[1,4]dioxano[2,3-g]quinazoline derivatives and process for preparing the same” (Korea Institute of Science and Technology, priority 2001, dated 2004)
pIC50: −log10 of the molar value. ≈ marks a conversion by molar mass, not a printed value.

What was measured:
[1] = Measurement of the solubility of compounds in water (HPLC calibration curve); format: physicochemical; settings: supersaturated in 1 ml of water, centrifuged, supernatant by HPLC; read-out: Solubility (mg/10 ml of water)
Experimental: That is, 1 mg of each of the above compounds was completely dissolved in 1 ml of DMSO, which was then subjected to HPLC employing C18 resin, and the peak area of chromatogram was calculated. And then, 1 mg of each of the same compound was dissolved in 10 ml of DMSO, which was then subjected to the same HPLC as the above to obtain a chromatogram, and the peak area was calculated therefrom. A solubility calibration curve was prepared by employing the above two data, and a linear function was deduced from that to complete a calibration curve (X axis: area, Y axis: logarithm value of concentration).
Each of the same compounds was supersaturated in 1 ml of water, which was then centrifuged at 14,000 rpm for 1 min. The precipitate was separated from the supernatant which was then subjected to the same HPLC as the above to obtain a chromatogram, and the peak area was calculated therefrom. The obtained value was substituted to the above calibration curve to measure the solubility by mg/10 ml of water (see: Table 1).

[2] = target: T1, purified human EGFR kinase (Homo sapiens, UniProt P00533); assay: Inhibition of EGFR tyrosine kinase (P32-ATP, biotin-conjugated substrate); format: biochemical; settings: purified human EGFR kinase, 50 μM ATP, 30° C., 10 min
T1 construct: purchased Promega
Experimental: The test was accomplished in a 20 μl reaction volume using 0.1 unit per reaction of purified human EGFR kinase (Promega, U.S.A.) and 50 μM biotin-conjugated substrate for tyrosine kinase (Promega, U.S.A.) and, 50 μM P^32-γ-ATP (0.2 μCi) and 20 mM Tris-HCl (pH 7.5) were employed as an ATP and a reaction solution, respectively. The test was carried out at 30° C. for 10 min, and terminated by the addition of 10 μl of 30% phosphate solution. The half of the reaction product was spotted onto avidin-layered PVDF membrane, which was then washed with 20 mM Tris-HCl (pH 8.0) and 0.2N NaCl aqueous solution for more than 2 hours.

[3] = system: A431 cancer cell; assay: Inhibition of cancer cell growth (sulforhodamine B); format: cell-based; settings: Homo sapiens, A-431, 48 h, A431 cells, grown 2 days with compound, SRB staining
Experimental: A431 cancer cell was cultivated at 37° C. under an environment of 5% (v/v) CO2 employing RPMI 1640 medium containing 10% (v/v) fetal calf serum. […] The above cells was grown again for 2 days, and then, fixed with formalin solution (Sigma Chem. Co., U.S.A.) and washed with water. After that, the cells was dried in the atmosphere, stained with 0.1% (v/v) sulforhodamine B solution (Sigma Chem. Co., U.S.A.) for 30 min and wash with 1% (v/v) acetic acid aqueous solution. Then, dye attached to cells was extracted with 0.1M Tris-HCl (pH 8.0) and the absorbances of the remaining culture were measured at 520 nm by the aid of microplate reader. And then, the concentration of the compound by which cell growth is 50% inhibited was represented as GI50(s: Table 3).

T1 sequence (P00533 25-1210): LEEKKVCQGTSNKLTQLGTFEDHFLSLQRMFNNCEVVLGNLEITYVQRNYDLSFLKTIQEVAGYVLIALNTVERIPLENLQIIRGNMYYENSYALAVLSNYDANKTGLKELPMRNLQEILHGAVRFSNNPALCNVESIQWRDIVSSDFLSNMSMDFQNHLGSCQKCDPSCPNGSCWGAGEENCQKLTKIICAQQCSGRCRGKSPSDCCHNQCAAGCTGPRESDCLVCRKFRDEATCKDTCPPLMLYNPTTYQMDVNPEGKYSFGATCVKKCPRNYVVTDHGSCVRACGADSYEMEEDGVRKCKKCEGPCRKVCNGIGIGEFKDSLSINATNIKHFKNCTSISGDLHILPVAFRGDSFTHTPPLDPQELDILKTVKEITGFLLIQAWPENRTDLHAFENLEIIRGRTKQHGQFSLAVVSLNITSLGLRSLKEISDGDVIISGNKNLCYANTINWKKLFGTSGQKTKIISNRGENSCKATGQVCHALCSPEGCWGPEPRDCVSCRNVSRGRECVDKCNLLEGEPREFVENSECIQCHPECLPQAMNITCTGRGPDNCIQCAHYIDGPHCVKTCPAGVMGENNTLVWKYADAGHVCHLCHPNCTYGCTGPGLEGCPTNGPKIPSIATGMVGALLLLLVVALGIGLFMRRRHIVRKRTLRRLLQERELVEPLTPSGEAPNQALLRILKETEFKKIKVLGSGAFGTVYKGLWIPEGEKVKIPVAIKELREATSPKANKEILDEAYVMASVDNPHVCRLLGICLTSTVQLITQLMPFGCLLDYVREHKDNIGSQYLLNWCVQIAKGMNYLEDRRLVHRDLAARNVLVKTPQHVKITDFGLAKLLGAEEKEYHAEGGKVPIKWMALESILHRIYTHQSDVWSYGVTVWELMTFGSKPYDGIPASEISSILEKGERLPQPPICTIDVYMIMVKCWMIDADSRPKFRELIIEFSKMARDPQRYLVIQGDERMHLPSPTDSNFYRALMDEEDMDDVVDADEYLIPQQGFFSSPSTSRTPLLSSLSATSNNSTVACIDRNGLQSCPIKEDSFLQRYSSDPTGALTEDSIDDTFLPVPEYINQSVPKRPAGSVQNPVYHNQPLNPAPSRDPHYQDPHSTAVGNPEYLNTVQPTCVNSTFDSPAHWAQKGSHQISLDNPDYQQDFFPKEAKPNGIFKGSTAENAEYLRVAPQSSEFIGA

melting point: 257 to 260 °C | solubility thermodynamic [1]: 1040 µg/mL (≈ 3050 µM) | pIC50 [2]: < 6.53 | GI50 [3]: 1.16 µg/mL (≈ 3.4 µM)
SMILES: COCC1COc2cc3ncnc(Nc4cccc(F)c4)c3cc2O1 (stereo not shown) [Example 8, (3-fluorophenyl)-(7-methoxymethyl-[1,4]-dioxano[2,3-g]quinazolin-4-yl)-amine]
